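Here, GI50 denotes the concentration required for 50% inhibition of growth. TGI denotes the concentration required for complete inhibition of growth.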
How the values were obtained:
Test in all cases: growth of human tumour cells (NCI), 384-well format
CAKI-1 renal = test system: CAKI-1 renal
MCF7 breast = test system: MCF7 breast
SF-295 CNS = test system: SF-295 CNS
NCI-H23 lung = test system: NCI-H23 lung
HS 578T breast = test system: HS 578T breast
UACC-62 melanoma = test system: UACC-62 melanoma
CCRF-CEM leukemia = test system: CCRF-CEM leukemia
NCI-H322M lung = test system: NCI-H322M lung
OVCAR-4 ovarian = test system: OVCAR-4 ovarian
A498 renal = test system: A498 renal
PC-3 prostate = test system: PC-3 prostate
SK-MEL-5 melanoma = test system: SK-MEL-5 melanoma
MDA-MB-435 melanoma = test system: MDA-MB-435 melanoma
SN12C renal = test system: SN12C renal
SNB-19 CNS = test system: SNB-19 CNS
HT29 colon = test system: HT29 colon
SF-268 CNS = test system: SF-268 CNS
LOX IMVI melanoma = test system: LOX IMVI melanoma
OVCAR-8 ovarian = test system: OVCAR-8 ovarian
SK-MEL-28 melanoma = test system: SK-MEL-28 melanoma
SNB-75 CNS = test system: SNB-75 CNS
TK-10 renal = test system: TK-10 renal
NCI-H226 lung = test system: NCI-H226 lung
SR leukemia = test system: SR leukemia
HOP-62 NSCLC = test system: HOP-62 NSCLC
MALME-3M melanoma = test system: MALME-3M melanoma
BT-549 breast = test system: BT-549 breast

## COc1cc(Nc2ncc(F)c(Nc3ccc4c(n3)NC(=O)C(C)(C)O4)n2)cc(OC)c1OC
CAKI-1 renal
  GI50: 0.445 µM
  TGI: > 100 µM
MCF7 breast
  GI50: 3.9 µM
  TGI: > 100 µM
SF-295 CNS
  GI50: 3.65 µM
  TGI: > 100 µM
NCI-H23 lung
  GI50: 0.538 µM
  TGI: > 100 µM
HS 578T breast
  GI50: 0.805 µM
  TGI: 18.4 µM
UACC-62 melanoma
  GI50: > 100 µM
  TGI: > 100 µM
CCRF-CEM leukemia
  GI50: 9.52 µM
  TGI: > 100 µM
NCI-H322M lung
  GI50: 4.17 µM
  TGI: > 100 µM
OVCAR-4 ovarian
  GI50: 16.4 µM
  TGI: > 100 µM
A498 renal
  GI50: 20.6 µM
  TGI: > 100 µM
PC-3 prostate
  GI50: 8.94 µM
  TGI: > 100 µM
SK-MEL-5 melanoma
  GI50: 7.41 µM
  TGI: > 100 µM
MDA-MB-435 melanoma
  GI50: 9.68 µM
  TGI: > 100 µM
SN12C renal
  GI50: 0.258 µM
  TGI: > 100 µM
SNB-19 CNS
  GI50: 28.5 µM
  TGI: > 100 µM
HT29 colon
  GI50: 10.6 µM
  TGI: > 100 µM
SF-268 CNS
  GI50: 2.55 µM
  TGI: 47.4 µM
LOX IMVI melanoma
  GI50: 6.19 µM
  TGI: > 100 µM
OVCAR-8 ovarian
  GI50: 4.11 µM
  TGI: 19.7 µM
SK-MEL-28 melanoma
  GI50: 43.8 µM
  TGI: > 100 µM
SNB-75 CNS
  GI50: 1.17 µM
  TGI: 28 µM
TK-10 renal
  GI50: > 100 µM
  TGI: > 100 µM
NCI-H226 lung
  GI50: 0.319 µM
  TGI: 13.2 µM
SR leukemia
  GI50: 1.27 µM
  TGI: 2.72 µM
HOP-62 NSCLC
  GI50: 5.75 µM
  TGI: 31.7 µM
MALME-3M melanoma
  GI50: 29.5 µM
  TGI: > 100 µM
BT-549 breast
  GI50: 4.37 µM
  TGI: > 100 µM
